Measurements from patent US12492188B2, “1H-benzo[D]imidazole derivatives as TLR9 inhibitors for the treatment of fibrosis” (BRISTOL-MYERS SQUIBB COMPANY, priority 2020, dated 2025).
Where two headings read alike, the source gives them in different places.

Tests used:
Format in all cases: cell-based
[1] = target: T1, human TLR8 (Homo sapiens, UniProt Q9NR97); assay: TLR8 inhibition reporter assay (HEK-Blue cells, secreted embryonic alkaline phosphatase reporter); conditions: HEK-Blue cells overexpressing human TLR8, stimulated with R848 15.9 μM; read-out: TLR 8 IC50
T1 construct: host or cells: HEK-Blue cells (HEK293-derived reporter line)
T1 sequence (Q9NR97 27-1041): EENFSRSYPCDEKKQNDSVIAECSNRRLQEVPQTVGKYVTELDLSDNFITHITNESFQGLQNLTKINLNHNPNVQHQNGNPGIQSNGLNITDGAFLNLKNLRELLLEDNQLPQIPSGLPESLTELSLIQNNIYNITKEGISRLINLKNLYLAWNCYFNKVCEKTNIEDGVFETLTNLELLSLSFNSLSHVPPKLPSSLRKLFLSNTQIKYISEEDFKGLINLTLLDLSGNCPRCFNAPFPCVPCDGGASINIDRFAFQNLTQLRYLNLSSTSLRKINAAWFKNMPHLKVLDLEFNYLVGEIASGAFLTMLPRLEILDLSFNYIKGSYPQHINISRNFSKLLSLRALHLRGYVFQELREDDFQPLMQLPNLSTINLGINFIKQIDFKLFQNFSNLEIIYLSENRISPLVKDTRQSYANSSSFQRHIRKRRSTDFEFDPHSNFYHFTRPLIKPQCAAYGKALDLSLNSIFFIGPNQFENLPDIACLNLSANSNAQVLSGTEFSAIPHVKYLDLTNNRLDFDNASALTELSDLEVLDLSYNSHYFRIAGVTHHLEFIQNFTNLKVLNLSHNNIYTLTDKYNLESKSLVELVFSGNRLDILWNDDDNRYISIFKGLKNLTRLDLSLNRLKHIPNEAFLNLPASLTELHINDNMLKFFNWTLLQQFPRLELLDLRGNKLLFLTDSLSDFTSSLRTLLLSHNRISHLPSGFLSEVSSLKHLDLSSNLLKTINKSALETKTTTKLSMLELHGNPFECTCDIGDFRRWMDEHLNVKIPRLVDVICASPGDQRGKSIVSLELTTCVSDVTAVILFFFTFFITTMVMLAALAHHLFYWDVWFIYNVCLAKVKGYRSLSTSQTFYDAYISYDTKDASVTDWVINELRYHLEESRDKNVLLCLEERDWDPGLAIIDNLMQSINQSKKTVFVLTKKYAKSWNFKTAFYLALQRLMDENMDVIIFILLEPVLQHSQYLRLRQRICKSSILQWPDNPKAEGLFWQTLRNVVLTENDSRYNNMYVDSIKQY
How it was run: (§1)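 Steps: seed receptor-specific HEK-Blue cells; add compound, 0.05 nM–50 μM; wait 30 min at room temperature; add final gardiquimod 7.5 μM, R848 15.9 μM or ODN2006 5 nM for TLR7, TLR8 or TLR9; incubate 22 h at 37 °C; detect NF-κB/AP-1-driven SEAP.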

[2] = target: T2, human TLR9 (Homo sapiens, UniProt Q9NR96); assay: TLR9 inhibition reporter assay (HEK-Blue cells, secreted embryonic alkaline phosphatase reporter)
T2 construct: host or cells: HEK-Blue cells (HEK293-derived reporter line)
T2 sequence (Q9NR96 26-1032): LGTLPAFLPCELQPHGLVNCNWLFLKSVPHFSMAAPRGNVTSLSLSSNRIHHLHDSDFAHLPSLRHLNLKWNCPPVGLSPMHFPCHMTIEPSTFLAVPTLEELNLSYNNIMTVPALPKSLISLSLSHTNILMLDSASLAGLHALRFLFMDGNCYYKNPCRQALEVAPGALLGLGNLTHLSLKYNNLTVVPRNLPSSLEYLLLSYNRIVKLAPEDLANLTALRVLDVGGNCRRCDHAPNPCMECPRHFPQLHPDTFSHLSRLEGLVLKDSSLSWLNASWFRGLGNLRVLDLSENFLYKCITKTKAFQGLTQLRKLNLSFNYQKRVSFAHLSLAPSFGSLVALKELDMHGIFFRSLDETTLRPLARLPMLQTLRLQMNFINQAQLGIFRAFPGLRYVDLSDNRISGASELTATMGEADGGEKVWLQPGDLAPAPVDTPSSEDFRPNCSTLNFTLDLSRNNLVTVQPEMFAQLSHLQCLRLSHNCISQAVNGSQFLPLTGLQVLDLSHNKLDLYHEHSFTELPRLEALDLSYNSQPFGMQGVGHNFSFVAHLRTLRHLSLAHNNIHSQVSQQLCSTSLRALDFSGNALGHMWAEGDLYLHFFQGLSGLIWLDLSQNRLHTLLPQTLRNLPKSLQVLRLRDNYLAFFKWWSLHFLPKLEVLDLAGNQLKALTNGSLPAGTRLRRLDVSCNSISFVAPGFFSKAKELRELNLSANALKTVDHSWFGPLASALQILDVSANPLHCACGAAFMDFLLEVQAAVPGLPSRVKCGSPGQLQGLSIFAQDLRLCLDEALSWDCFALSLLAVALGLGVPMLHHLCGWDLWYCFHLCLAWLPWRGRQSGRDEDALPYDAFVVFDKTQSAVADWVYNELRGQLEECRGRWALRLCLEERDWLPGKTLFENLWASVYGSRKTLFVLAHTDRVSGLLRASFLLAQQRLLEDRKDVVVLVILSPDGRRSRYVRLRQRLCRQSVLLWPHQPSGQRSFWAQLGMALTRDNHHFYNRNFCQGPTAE
How it was run: as §1

[3] = target: T3, human TLR7 (Homo sapiens, UniProt Q9NYK1); assay: TLR7 inhibition reporter assay (HEK-Blue cells, secreted embryonic alkaline phosphatase reporter); conditions: HEK-Blue cells overexpressing human TLR7, stimulated with gardiquimod 7.5 μM; read-out: TLR 7 IC50
T3 construct: host or cells: HEK-Blue cells (HEK293-derived reporter line)
T3 sequence (Q9NYK1 27-1049): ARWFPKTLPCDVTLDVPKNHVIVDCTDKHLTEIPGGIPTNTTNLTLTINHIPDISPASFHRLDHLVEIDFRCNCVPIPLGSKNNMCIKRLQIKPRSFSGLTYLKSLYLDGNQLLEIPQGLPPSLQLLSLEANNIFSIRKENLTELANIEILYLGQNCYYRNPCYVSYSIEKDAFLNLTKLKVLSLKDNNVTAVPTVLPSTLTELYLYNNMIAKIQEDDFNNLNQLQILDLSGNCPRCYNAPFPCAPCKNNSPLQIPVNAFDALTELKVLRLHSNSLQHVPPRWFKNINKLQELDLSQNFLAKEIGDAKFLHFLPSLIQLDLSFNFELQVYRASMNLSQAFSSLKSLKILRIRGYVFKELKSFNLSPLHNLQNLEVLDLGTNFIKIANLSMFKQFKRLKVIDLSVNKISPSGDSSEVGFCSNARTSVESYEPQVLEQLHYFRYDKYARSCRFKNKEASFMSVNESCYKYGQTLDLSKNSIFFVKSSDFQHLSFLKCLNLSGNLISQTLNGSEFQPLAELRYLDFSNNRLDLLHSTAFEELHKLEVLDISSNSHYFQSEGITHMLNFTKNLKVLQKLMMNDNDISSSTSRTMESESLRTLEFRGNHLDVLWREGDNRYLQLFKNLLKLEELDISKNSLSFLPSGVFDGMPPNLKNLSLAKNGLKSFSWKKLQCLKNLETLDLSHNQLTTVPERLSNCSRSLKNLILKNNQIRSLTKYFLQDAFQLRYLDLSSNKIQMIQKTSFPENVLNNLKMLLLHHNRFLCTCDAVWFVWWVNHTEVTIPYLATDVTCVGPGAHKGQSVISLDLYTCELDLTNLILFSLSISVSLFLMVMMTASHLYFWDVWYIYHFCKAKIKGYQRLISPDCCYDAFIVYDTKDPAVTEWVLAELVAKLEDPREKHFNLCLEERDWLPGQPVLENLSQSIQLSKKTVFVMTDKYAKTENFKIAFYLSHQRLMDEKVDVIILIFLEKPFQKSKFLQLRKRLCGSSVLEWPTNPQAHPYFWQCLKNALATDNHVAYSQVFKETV
How it was run: as §1

[4] = HEK-Blue cells overexpressing human TLR9, stimulated with ODN2006 5 nM, read-out: TLR 9 IC50
[5] = HEK-Blue human TLR9 reporter cells
[6] = HEK-Blue cells overexpressing human TLR9, stimulated with ODN2006 5 nM, 22 hour incubation, reporter readout

## CC(C)CN1C2CCC1CC(N1CCC(c3cc(F)c4nc(-c5ccc(S(C)(=O)=O)cc5)n(C)c4c3)CC1)C2 (stereo not drawn) [Example 285, 4-fluoro-6-(1-(8-isobutyl-8-azabicyclo[3.2.1]octan-3-yl)piperidin-4-yl)-1-methyl-2-(4-(methylsulfonyl)phenyl)-1H-benzo[d]imidazole]
[1]
  IC50: > 50 µM
[2]; [4]
  IC50: 248 nM
[2]; [5]
  IC50: 250 nM
[3]
  IC50: 4.8 µM

## CS(=O)(=O)c1ccc(-c2nc3c(F)cc(-c4ccc(CN5CCC(N6CCCC6)CC5)cc4)cc3n2C2CC2)cc1 [Example 408, 1-cyclopropyl-4-fluoro-2-(4-(methylsulfonyl)phenyl)-6-(4-((4-(pyrrolidin-1-yl)piperidin-1-yl)methyl)phenyl)-1H-benzo[d]imidazole]
[1]
  IC50: 0.9 µM
[2]; [6]
  IC50: 140 nM
[2]; [4]
  IC50: 136 nM
[3]
  IC50: 1.6 µM

## CC(C)N1C2CCC1CC(N1CCC(c3cc4nc(-c5ccc(S(C)(=O)=O)cc5)n(C)c4cc3F)CC1)C2 (single isomer, unassigned) [Example 101, 6-fluoro-5-(1-(8-isopropyl-8-azabicyclo[3.2.1]octan-3-yl)piperidin-4-yl)-1-methyl-2-(4-(methylsulfonyl)phenyl)-1H-benzo[d]imidazole]
[1]
  IC50: > 50 µM
[2]; [6]
  IC50: 75 nM
[3]
  IC50: 19.5 µM

## CC(C)CN1CCCC(N2CCC(c3cc(F)c4nc(-c5ccc(S(C)(=O)=O)cc5)n(C)c4c3)CC2)CC1 (stereo not drawn) [Example 297, 4-fluoro-6-(1-(1-isobutylazepan-4-yl)piperidin-4-yl)-1-methyl-2-(4-(methylsulfonyl)phenyl)-1H-benzo[d]imidazole]
[1]
  IC50: > 50 µM
[2]; [4]
  IC50: 23 nM
[2]; [5]
  IC50: 23 nM
[3]
  IC50: 12.5 µM

## COc1cc(-c2nc3c(C)cc(C4CCN(C5CC6CCC(C5)N6C(C)C)CC4)cc3n2C)cn2ncnc12 (stereo not drawn) [Example 357, 6-(6-(1-(8-isopropyl-8-azabicyclo[3.2.1]octan-3-yl)piperidin-4-yl)-1,4-dimethyl-1H-benzo[d]imidazol-2-yl)-8-methoxy-[1,2,4]triazolo[1,5-a]pyridine]
[1]
  IC50: 7.9 µM
[2]; [4]
  IC50: 32 nM
[2]; [5]
  IC50: 32 nM
[3]
  IC50: 0.3 µM

## Cc1cc(C2CCN(C3CC4CCC(C3)N4C3COC3)CC2)cc2c1nc(-c1ccc(S(C)(=O)=O)cc1)n2C (single isomer, unassigned) [Example 158, 1,4-dimethyl-2-(4-(methylsulfonyl)phenyl)-6-(1-(8-(oxetan-3-yl)-8-azabicyclo[3.2.1]octan-3-yl)piperidin-4-yl)-1H-benzo[d]imidazole]
[1]
  IC50: > 25 µM
[2]
  IC50: 160 nM
[2]; [4]
  IC50: 1610 nM
[3]
  IC50: > 25 µM

## COCCN1CCC(N2CCC(c3cc4nc(-c5ccc(S(C)(=O)=O)cc5)n(C)c4cc3F)CC2)CC1 [Example 246, 6-fluoro-5-(1′-(2-methoxyethyl)-[1,4′-bipiperidin]-4-yl)-1-methyl-2-(4-(methylsulfonyl)phenyl)-1H-benzo[d]imidazole]
[1]
  IC50: > 50 µM
[2]
  IC50: 400 nM
[2]; [4]
  IC50: 398 nM
[3]
  IC50: 26.2 µM

## Cc1cc(C2CCN(C3CCCN(C4COC4)CC3)CC2)cc2c1nc(-c1ccc(S(C)(=O)=O)cc1)n2C (stereo not drawn) [Example 305, 1,4-dimethyl-2-(4-(methylsulfonyl)phenyl)-6-(1-(1-(oxetan-3-yl)azepan-4-yl)piperidin-4-yl)-1H-benzo[d]imidazole]
[1]
  IC50: > 50 µM
[2]; [4]
  IC50: 90 nM
[2]; [5]
  IC50: 90 nM
[3]
  IC50: 8.6 µM

## Cn1c(-c2ccc(S(C)(=O)=O)cc2)nc2c(F)cc(C3CCN(C4CCCN(CC5CC5)CC4)CC3)cc21 (single isomer, unassigned) [Example 299, 6-(1-(1-(cyclopropylmethyl)azepan-4-yl)piperidin-4-yl)-4-fluoro-1-methyl-2-(4-(methylsulfonyl)phenyl)-1H-benzo[d]imidazole]
[1]
  IC50: > 50 µM
[2]; [4]
  IC50: 3.3 nM
[2]; [5]
  IC50: 3.3 nM
[3]
  IC50: 2.1 µM

## COc1ccc(-c2nc3c(C)cc(C4C[C@H]5CC[C@@H](C4)N5C4CCN(C(C)C)CC4)cc3n2C)cc1OC (mixture of isomers) [Example 21, 2-(3,4-dimethoxyphenyl)-6-(8-(1-isopropylpiperidin-4-yl)-8-azabicyclo[3.2.1]octan-3-yl)-1,4-dimethyl-1H-benzo[d]imidazole]
[1]
  IC50: > 50 µM
[2]; [6]
  IC50: 24 nM
[3]
  IC50: 2.6 µM

## Cn1c(-c2ccc(S(C)(=O)=O)cc2)nc2c(F)c(C3CCN(C4CC5CCC(C4)N5CC4COC4)CC3)ccc21 (single isomer, unassigned) [Example 194, 4-fluoro-1-methyl-2-(4-(methylsulfonyl)phenyl)-5-(1-(8-(oxetan-3-ylmethyl)-8-azabicyclo[3.2.1]octan-3-yl)piperidin-4-yl)-1H-benzo[d]imidazole]
[1]
  IC50: > 50 µM
[2]
  IC50: 630 nM
[2]; [4]
  IC50: 631 nM
[3]
  IC50: 45.6 µM
